Reference: a melting point compilation (Tetko et al.; mined from patent text by program, amines drawn as free bases though some values may be those of a salt)
Residues, ends and D or L forms follow the SMILES beside them. *: point of attachment. Tos = Cc1ccc(S(=O)(=O)*)cc1

SMILES	melting point
O=CC(=C1NCCCS1)[N+](=O)[O-]	171 to 172 °C
CC[C@H]1C(=O)C[C@@H]2C[C@H]1OO[C@@]2(/C=C/C(=O)c1ccc(Cl)cc1)CC	127 °C
CC1(C)C(C(=O)O)C1C(C(Cl)(Br)C(F)(F)F)S(C)(=O)=O (stereo unspecified)	138 °C
COC(=O)C(C)Nc1nc(Cl)ccc1[N+](=O)[O-] (stereo unspecified)	113 to 114 °C
CC(=O)Nc1c(C(=O)c2cccc(Br)c2)[nH]c2cc(Cl)ccc12	183 to 184 °C
NS(=O)(=O)c1cc2[nH]c(-c3nc4cc(Cl)c(S(N)(=O)=O)cc4[nH]3)nc2cc1Cl	360 °C
Cc1ncccc1Oc1ccc(NC(=O)Nc2ccc3[nH]c4c(c3c2)CCN(C(=O)OC(C)(C)C)CC4)cn1	173 to 175 °C
c1ccc(Cc2n[nH]c(NCCCOc3cccc(CN4CCCCC4)c3)n2)cc1	143 to 144 °C
Clc1ccc2ncsc2c1Cl	180 to 198 °C
CS(=O)(=O)c1ccc(Cl)cc1C(=O)O	138 to 146 °C
COc1cc(C(C)C)c2c(c1OC)S(=O)(=O)NC2=O	210 to 212 °C
CN1CCCN(c2ccc3nc4c(n3n2)CCCC4)CC1	106 to 107 °C
Nc1c(-c2ccccc2)nn2ccccc12	155 to 157 °C
Cc1cccc(N2CCN(CCc3nc4cc(Br)c5ccccc5c4n3C)CC2)c1	155 to 157 °C
CN1CC=C(C(=O)N2c3ccccc3NC(=O)c3ccccc32)CC1	233 to 234 °C
Nc1n[nH]c2cccc(C(F)(F)F)c12	129 to 130 °C
CC(C)(C)OC(=O)NCCNC(=O)c1ncccc1OCc1ccccc1	145 to 147 °C
Cc1nc(-c2ccc(Cl)cc2)oc1COC(C)(C)C(N)=O	177 to 178 °C
Oc1ncnc2[nH]c(-c3ccncc3)cc12	> 260 °C
O=CN(O)C(CS(=O)(=O)c1ccc(Oc2ccc(OC(F)(F)F)cc2)cc1)C1CCC2(CC1)OCCO2 (stereo unspecified)	176 to 177 °C
CCOC(=O)C1N=C(c2ccccc2)c2cc(Cl)ccc2N(C)C1=O (stereo unspecified)	180 °C
O=C(Nc1ccccc1)C12CC3CC(CC(C3)C1)C2	196 to 199 °C
Nc1n[nH]c2ccc(Cl)cc12	162 to 163 °C
COC1=C(OC)C(=O)C2=C(CCC(CCOc3ccc4c(c3)OCO4)CC2)C1=O	75 to 78 °C

SMILES	melting point
Cc1nc2ncnn2c2c1CCN2C1CCCCCC1	197 to 198 °C
C=C1CC2CC(O)CCC2(C)C2CCC3(C)C(C(C)CCC(=O)O)CCC3C12 (stereo unspecified)	104 to 105 °C
N#Cc1ccc(NCC(F)(F)F)cc1C(F)(F)F	132 to 134 °C
N#Cc1cncnc1N1CCc2ccccc2CC1	148 to 150 °C
COc1ccc(C2=NN(c3ccc(C(=O)O)cc3)C(=O)[C@H]3CC=CC[C@@H]23)cc1OC (relative stereo)	198 to 199 °C
O=S(=O)(c1ccc(Cl)cc1)C(c1cc(F)ccc1F)c1cc(NCCOCCO)ncc1Cl (stereo unspecified)	113 to 115 °C
CC(=O)OCCCNC(=O)C1=C(C(=O)Nc2ccc(Cl)cc2F)CCCC1	127 to 128 °C
CO[C@@H]1C[C@H](C(=O)Nc2ccc(N3CCOCC3=O)cc2)N(C(=O)Nc2ccc(Cl)cc2)C1	133 °C
O=C(COc1ccccc1)NCCc1ccc(S(=O)(=O)NC(=O)c2ccc(C(=O)NCCO)nc2)cc1	155 to 156 °C
CS(=O)(=O)N(CCCl)N(C(=O)NCCCCl)S(C)(=O)=O	85 to 86 °C
CCOC(=O)c1cc2cc(N(C)C)ccc2s1	95 to 96 °C
CC(Nc1ccc2c(n1)CC1CCCCC1C2=O)c1ccccc1 (stereo unspecified)	156 to 158 °C
COC(=O)[C@@H]1COC(=S)N1C(C)=O	68 to 68.4 °C
Cc1ccc(S(=O)(=O)NCl)cc1	201 to 206 °C
Oc1ccc(-c2nnc(CCCCCc3ccccc3)o2)cc1	118 to 123 °C
CCc1nc2cc(C(=O)NC)c(Cl)cc2n1-c1ccc(CCNC(=O)NS(=O)(=O)c2ccc(C)cc2)cc1	122 to 135 °C
NS(=O)(=O)c1ccc(-c2[nH]c3ccc(Cl)cc3c2-c2ccccc2)cc1	297 to 299 °C
S=c1[nH]c(-c2ccccc2)c(-c2ccccc2)n1Nc1cccc(Cl)c1	178 to 180 °C
CC(C)C(NS(=O)(=O)c1ccc(-c2ccc(NC(=O)c3cc4cc(Br)ccc4o3)cc2)cc1)C(=O)O (stereo unspecified)	263 to 265 °C
COC(Cc1ccc(OCCc2nc(-c3ccccc3)oc2C)c2ccsc12)C(=O)O (stereo unspecified)	129 to 131 °C
CCN(CC)c1ncc(C(=O)O)c2[nH]nc(C)c12	85 to 88 °C
CCCCCCC(Oc1c(Br)cc(-c2ccc(-c3c(Cc4ccccc4)oc4ccccc34)cc2)cc1Br)C(=O)O (stereo unspecified)	72 to 74 °C
COc1ccccc1C(=CC=O)c1ccccc1OC	59.5 to 61.5 °C
CCc1cn(C2CC(O)C(CNC(=O)Cc3ccccc3NC(C)=O)O2)c(=O)[nH]c1=O (stereo unspecified)	266 to 267 °C

SMILES	melting point
COc1ccc(F)cc1NC(=O)Nc1ccc(N2CCN(C(=O)Nc3ccc(OCCO)cc3C(F)(F)F)CC2)cc1	140 to 141 °C
COC(=O)c1cc(NS(C)(=O)=O)c2cc(Cc3ccc(F)cc3)cnc2c1O	190 °C
Oc1ccccc1CNCCCCCCNCc1ccccc1O	72 to 73 °C
O=C(Nc1cccc2c1C(=O)c1c-2n[nH]c1-c1ccc(C(=O)N2CCNCC2)s1)NN1CCOCC1	241 to 242 °C
Cc1cccc(I)c1C(=O)NC(C)(C)CS(C)(=O)=O	134 to 136 °C
CCCCCCCCCCCCCCc1ccc(O)c(C(C)=O)c1	38.5 to 39.5 °C
CCN(CC)CC1CCCCN1CC(=O)N1c2ccccc2C(=O)Nc2ccc(Cl)nc21 (stereo unspecified)	191 to 192 °C
Cc1cccc(-c2nnn[nH]2)c1	150 to 152 °C
Cc1c2ccccc2c(-c2cc(Br)c(OC(Cc3ccccc3)C(=O)O)c(Br)c2)c2c1sc1ccccc12 (stereo unspecified)	117 to 122 °C
CC(C)(C)OC(=O)NCC(=O)OCCCNc1ccc(O)c2c1C(=O)c1ccccc1C2=O	124 °C
CCOC(=O)c1sc(SC)c2c1CCC(C=O)=C2Cl	79 to 80 °C
CC(=O)C1C=C(Br)C(=O)CO1 (stereo unspecified)	78 to 80 °C
CCOC(=O)C(CO)C(C)c1cccnc1 (stereo unspecified)	128 to 131 °C
O=C(O)CC(CC(=O)O)c1ccc(F)cc1	145 to 147 °C
Nc1cc2c3c(cccc3c1N1CCCC1)C(=O)N(O)C2=O	253 to 256 °C
COc1ccc(Cn2c(=O)c3cc([N+](=O)[O-])ccc3n(CCCCBr)c2=O)cc1	143 to 144 °C
O=C1c2ccccc2C(=O)N1Cc1ccc(I)cc1	138 to 139 °C
O=C(O)Cc1sc(NC(=O)c2cc(Br)ccc2O)nc1-c1ccccc1	284 to 286 °C
O=C(CC(F)(F)F)NNc1nccc(-c2ccc(OC3CCOCC3)c(Cl)c2)c1Cl	191 °C
Cc1csc2ccc3[nH]c4c(c3c12)CN(C(=O)OCCCN(C)C)CC4	184 °C
CC(C)(C)c1cc(CCc2ccccc2NC(=O)NC2CCN(CCc3ccc(F)cc3)CC2)cc(C(C)(C)C)c1O	117 to 119 °C
CC(C(=O)NO)c1ccc(C(=O)c2cccs2)cc1 (stereo unspecified)	144 °C
Cc1ccc(S(=O)(=O)N2CCC[C@H]2C(=O)N[C@@H](CC(N)=O)C(=O)O)cc1 (Tos-Pro-Asn-OH)	178 to 180 °C
